Values joined by “and” are separate entries in the source; they are usually repeats but may differ in a detail not shown here. Equal values may be shown once. Toxic doses and inconclusive results are not listed. Peptide text beside a SMILES is read from it.
Tested on: P388 leukemia ip, CD2F1 mice, survival T/C
Assay: NCI In Vivo Anticancer Drug Screen. Data for tumor model P388 Leukemia (intraperitoneal) in CD2F1 (CDF1) mice
Conditions: endpoint: median survival time, higher = longer survival
How it was run: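 Mice carrying the transplanted tumor received test compound or vehicle. Survival was recorded in each group, and the value is the treated-group measurement divided by that of the vehicle-treated control group.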

[1] = dose: 50.0 mg/kg/injection, schedule: Q01DX005 (ip), vehicle: Klucel (hydroxypropylcellulose) (HPC)
[2] = dose: 100.0 mg/kg/injection, schedule: Q01DX005 (ip), vehicle: Klucel (hydroxypropylcellulose) (HPC)
[3] = dose: 200.0 mg/kg/injection, schedule: Q01DX005 (ip), vehicle: Klucel (hydroxypropylcellulose) (HPC)

Compound: CCN=C(C1=C(O)c2ccccc2C1=O)c1ccccc1
- T/C (dose: 50.0 mg/kg/injection, schedule: Q04DX002 (ip), vehicle: saline with Tween-80): 94 % of control
- T/C (dose: 100.0 mg/kg/injection, schedule: Q04DX002 (ip), vehicle: saline with Tween-80): 119 % of control
- T/C (dose: 200.0 mg/kg/injection, schedule: Q04DX002 (ip), vehicle: saline with Tween-80): 111 % of control

Compound: COc1cccc2c1C(=O)c1c(O)c3c(c(O)c1C2=O)CC(O)(C(=O)CO)CC3OC1CC(N)C(O)C(C)O1.[Cl][Pt+2][Cl].[NH2-].[NH2-] (stereo unspecified)
- T/C (dose: 8.0 mg/kg/injection, schedule: Q04DX003 (ip), vehicle: DMSO): 171 % of control and 182 % of control
- T/C (dose: 16.0 mg/kg/injection, schedule: Q04DX003 (ip), vehicle: DMSO): 174 % of control and 193 % of control
- T/C (dose: 32.0 mg/kg/injection, schedule: Q04DX003 (ip), vehicle: DMSO): 118 % of control
- T/C (dose: 64.0 mg/kg/injection, schedule: Q04DX003 (ip), vehicle: DMSO): 100 % of control

Compound: O=C(O)CCNC(=O)CCCO
- T/C (dose: 50.0 mg/kg/injection, schedule: Q01DX005 (ip), vehicle: saline): 100 % of control
- T/C (dose: 100.0 mg/kg/injection, schedule: Q01DX005 (ip), vehicle: saline): 104 % of control
- T/C (dose: 200.0 mg/kg/injection, schedule: Q01DX005 (ip), vehicle: saline): 104 % of control

Compound: O=C(N/N=C\c1cc(Br)cc(Br)c1O)N/N=C/c1cc(Br)cc(Br)c1O
- T/C (dose: 6.25 mg/kg/injection, schedule: Q01DX009 (ip), vehicle: saline with Tween-80): 100 % of control and 110 % of control
- T/C (dose: 12.5 mg/kg/injection, schedule: Q01DX009 (ip), vehicle: distilled water + Tween-80): 98 % of control
- T/C (dose: 20.0 mg/kg/injection, schedule: Q01DX005 (ip), vehicle: suspension in saline): 106 % of control
- T/C (dose: 20.0 mg/kg/injection, schedule: Q01DX005 (iv), vehicle: suspension in saline): 101 % of control
- T/C (dose: 25.0 mg/kg/injection, schedule: Q01DX009 (ip), vehicle: distilled water + Tween-80): 106 % of control
- T/C (dose: 40.0 mg/kg/injection, schedule: Q01DX005 (iv), vehicle: suspension in saline): 101 % of control
- T/C (dose: 50.0 mg/kg/injection, schedule: Q01DX009 (ip), vehicle: distilled water + Tween-80): 120 % of control
- T/C (dose: 50.0 mg/kg/injection, schedule: Q01DX009 (oral), vehicle: saline with Tween-80): 103 % of control
- T/C (dose: 80.0 mg/kg/injection, schedule: Q01DX005 (iv), vehicle: suspension in saline): 100 % of control
- T/C (dose: 100.0 mg/kg/injection, schedule: Q01DX009 (oral), vehicle: saline with Tween-80): 105 % of control
- T/C (dose: 160.0 mg/kg/injection, schedule: Q01DX005 (ip), vehicle: suspension in saline): 158 % of control
- T/C (dose: 160.0 mg/kg/injection, schedule: Q01DX005 (iv), vehicle: suspension in saline): 100 % of control
- T/C (dose: 200.0 mg/kg/injection, schedule: Q01DX009 (oral), vehicle: saline with Tween-80): 108 % of control
- T/C (dose: 280.0 mg/kg/injection, schedule: Q01DX005 (ip), vehicle: suspension in saline): 160 % of control
- T/C (dose: 400.0 mg/kg/injection, schedule: Q01DX009 (oral), vehicle: saline with Tween-80): 104 % of control
- T/C (dose: 800.0 mg/kg/injection, schedule: Q01DX009 (oral), vehicle: saline with Tween-80): 104 % of control
- T/C (dose: 1600.0 mg/kg/injection, schedule: Q01DX009 (oral), vehicle: saline with Tween-80): 106 % of control

Compound: CN(C)CCN1C(=O)c2cccc3cc(N)cc(c23)C1=O
- T/C (dose: 2.0 mg/kg/injection, schedule: Q01DX009 (ip), vehicle: saline with Tween-80): 111 % of control
- T/C (dose: 8.0 mg/kg/injection, schedule: Q01DX009 (ip), vehicle: saline with Tween-80): 176 % of control

Compound: CC(N)C(=O)NC(Cc1ccc(O)cc1)C(N)=O (stereo not drawn) (H-Ala-Tyr-NH2; configuration not given here)
- T/C [1]: 108 % of control
- T/C [2]: 105 % of control
- T/C [3]: 100 % of control

Compound: CCSc1cccc2nncn12
- T/C (dose: 50.0 mg/kg/injection, schedule: Q01DX001 (ip), vehicle: saline): 103 % of control
- T/C (dose: 100.0 mg/kg/injection, schedule: Q01DX001 (ip), vehicle: saline): 100 % of control
- T/C (dose: 200.0 mg/kg/injection, schedule: Q01DX001 (ip), vehicle: saline): 100 % of control

Compound: CC(C)(C)OC(=O)NC(CCCCNC(=O)OCC1c2ccccc2-c2ccccc21)C(=O)O (stereo unspecified)
- T/C [1]: 103 % of control
- T/C [2]: 99 % of control
- T/C [3]: 103 % of control

Compound: CCSc1nc2ccc(NC(=O)/C=C/C(=O)O)cc2s1
- T/C (dose: 50.0 mg/kg/injection, schedule: Q01DX009 (ip), vehicle: Klucel (hydroxypropylcellulose) (HPC)): 103 % of control
- T/C (dose: 100.0 mg/kg/injection, schedule: Q01DX009 (ip), vehicle: Klucel (hydroxypropylcellulose) (HPC)): 90 % of control
- T/C (dose: 200.0 mg/kg/injection, schedule: Q01DX009 (ip), vehicle: Klucel (hydroxypropylcellulose) (HPC)): 95 % of control

— PubChem BioAssay AID330 (DTP/NCI, 2004)
